Measured values: US20040121307A1, “Early detection of cellular differentiation using optophoresis” (Genoptix, Inc, priority 2002, published 2004)
Where a name gives a salt, the structure may show the parent alone. Read-outs that look alike come from different tables or passages of the source. Values belong to the compound of their own block, whether it stands above or below them.

Legend:
U937 cells [1] = assay: Experiment 3: PMA inhibition by bisindolymaleimide, escape velocity; format: cell-based; details: for average escape velocity / escape velocity, Ave.: four hours; for escape velocity, Ave.: no PMA
Source text: The objective of this experiment was to test the effect of bisindolymaleimide on cells exposed to PMA. Bisindolymaleimide is a Protein Kinase C inhibitor and should block the effect of PMA on U937 cells and their escape velocities. As shown in this and prior experiments, exposure of U937 cells to PMA results in an increase in the escape velocity of the cells. Therefore, it is anticipated that addition of bisindolymaleimide will reduce or eliminate the increase in escape velocity caused by PMA. This has in fact been observed in the data shown below.
Bisindolymaleimide was tested at two concentrations: 200 ng/ml and 50 ng/ml. Samples not treated with bisindolymaleimide received an equivalent amount of the carrier, MeOH, as a control. […] The concentration of PMA tested was 10 ng/ml. Samples not receiving PMA received DMSO.
Once the flasks were prepared, they were incubated at 37° C. 5% CO2 for four hours. At the four hour timepoint, 300 μl of cells were removed from each flask and pelleted at 5000 rpm for 5 minutes. The cells were then resuspended in 6 ml PBS/1% BSA and 60 μl trypan blue.

HL-60 cells = assay: Cellular differentiation of HL-60, fast scan time course; format: cell-based; details: 1% DMSO
Method: (§1) Fast scan analysis was also performed on HL-60 cells that were treated with PMA and DMSO. A time course evaluation of PMA treated HL-60 cells was performed with fast scan data taken at 16 hours, 24 hours, 40 hours, and 72 hours post-treatment with 400 ng/ml PMA. A control sample of HL-60 cells was also tested using EtOH as the vehicle for purposes of comparing the differentiated cells with the undifferentiated HL-60 cells. The PMA-treated and control cells were harvested and trypsinized. The samples were then resuspended in PBS/1% BSA. A set of samples was also obtained and left as pellets at 4° C. for subsequent FACS analysis.
A time course evaluation of DMSO treated HL-60 cells was performed with fast scan data taken at 16 hours, 24 hours, 40 hours, and 70 hours post-treatment with 1% DMSO. A control sample of HL-60 cells was also tested for purposes of comparing the differentiated cells with the undifferentiated HL-60 cells. The DMSO-treated and control cells were then harvested and resuspended in PBS/1% BSA. A set of samples was also obtained and left as pellets at 4° C. for subsequent FACS analysis.

[2] = system: CD11b expression in HL-60 cells; assay: FACS CD11b expression profile; format: cell-based; details: 1% DMSO
Method: as §1
FIG. 145 illustrates a histogram of the travel distance of the control cells as well as the PMA-treated cells at 16 hours, 24 hours, 40 hours, and 72 hours post-treatment. FIG. 146 illustrates the mean travel distances of the control cells as well as the PMA-treated cells at 16 hours, 24 hours, 40 hours, and 72 hours post-treatment. FIG. 147 illustrates the FACS CD11b expression profile in PMA-treated HL-60 cells as well as the control. CD11b is a known marker of cellular differentiation and is expressed on the surface of differentiating cells. […] The data illustrate that Optophoretic analysis can be used as an assay for the detection and quantification of cellular differentiation. […]

[3] = system: wild type Staphylococcus aureus; assay: Bacterial screen for drug sensitivity, escape velocity, sensitive strain; format: cell-based
Method: (§2) In this experiment, escape velocity was measured over time in wild type Staphylococcus aureus and an Erythromycin-resistant strain. 5 μg/ml of Erythromycin was applied to both the wild type Staphylococcus aureus and an Erythromycin-resistant strain. Escape velocity measurements were taken at time zero, 30 minutes post-treatment, and 3 hours post-treatment. […] In this experiment, however, escape velocity measurements were made at time zero, 30 minutes post-treatment, and 1 hour post-treatment, and 2 hours post-treatment. A reduction in escape velocity of the Erythromycin-sensitive strain can be seen at 1 hour post-treatment.

[4] = system: Erythromycin-resistant strain; assay: Bacterial screen for drug sensitivity, escape velocity, resistant strain; format: cell-based, Staphylococcus aureus; details: 5 μg/ml Erythromycin (FIG. 80)
Method: as §2

[5] = system: K562, BV-173, EM-3, and U-937 cells; assay: Experiment 8: effect of Gleevec, escape velocity; format: cell-based; details: 72 hours after exposure, all four cell types
Source text: The U-937 cells have no copies of the gene. The K-562 line of cells has, on average, one copy of the gene per cell. The BV-173line of cells has, on average, three copies of the gene per cell. The EM-3 cell line has, on average, five copies of the gene per cell. […] FIG. 44 illustrates the measured escape velocities (average) for each of the four cell types. […] In addition, the decrease in escape velocity for the Gleevec-treated cells was more pronounced in those cell lines that had higher copy numbers of the Bcr-Abl gene.

EM-3 cells = assay: Experiments 9 and 9.1: Gleevec and other kinase inhibitors, fast scan; format: cell-based; details: for Mean Distance: 1 μM, 48 hours of exposure
Method: A second group of cells were treated with 1 μM Src-Family Protein Tyrosine Kinase Inhibitor Set, obtained from CALBIOCHEM (Cat. No. 567816). The Src Set contained four inhibitors, namely, Genistein, Herbimycin A, Streptomyces sp., PP2, and PP3. A third group of cells were treated with 1 μM Staurosporine. A fourth group of cells were treated with 1 μM TK Inhibitor Set, also obtained from CALBIOCHEM (Cat. No. 657021). The TK Inhibitor Set contained five inhibitors, Genistein, PP2, AG490, AG1296, and AG1478. […] Measurements were taken after 48 hours of exposure.
Fast scan analysis was performed after 48 hours of incubation.

Jurkat cells = assay: Experiment 5: TNF-α effect, escape velocity; format: cell-based; details: TNF inhibitor added with TNF (FIG. 36)
Method: After 48 hours of incubation, the cells were removed and centrifuged for 5 minutes at 5,000 rpm. Then the cells were resuspended in PBS/1% BSA and trypan blue. A higher power setting, 140 mW instead of 100 mW, was used for this experiment. The escape velocities were measured as follows:
In this experiment Leflunomide and Silymarin were added with TNF to see if the anticipated increase in escape velocity measurements could be counteracted by the presence of the TNF inhibitors.

U937 cells [6] = system: U937 cells
Method: This experiment is designed to compare the effects of two concentrations of sodium salicylate on U937 cells. Sodium salicylate was prepared at two concentrations: 20 mM and 5 mM. The escape velocities of the cells was tested at 5 hours, 24 hours and 47 hours. At each timepoint, 30 μl of sample was pelleted at 5,000 rpm for 5 minutes and then resuspended in PBS/1% BSA and trypan blue.

Chang liver cells [7] = assay: Experiment 10: toxicity of ketoconazole, escape velocity; format: cell-based, human; details: 1 μm ketoconazole, 1.5 hours of treatment
Method: (§3) This experiment is designed to test the effect of ketoconazole on human liver cells. Ketoconazole induces toxicity in liver cells. The sample cells were Chang liver cells. The concentration of ketoconazole used to treat the cells was 1 μm. Escape velocity and fast scan protocols were applied to determine the impact, if any, of ketoconazole treatment. […] Consequently, Optophoresis was able to detect an effect on the escape velocity of treated cells within 1.5 hours of exposure to ketoconazole. FIGS. 44-45 show the fast scan results of ketoconazole-treated Chang liver cells. […] The ketoconazole-treated cells generally traveled a smaller distance as compared to the non-treated control.

Chang liver cells [8] = format: cell-based; details: human, 1 μm
Method: as §3

CCRF-CEM cells = assay: Experiment 14, fifth experiment: topotecan on sensitive cell line, escape velocity; format: cell-based; details: 10 μM topotecan, 6 hours
Method: In a fifth experiment, two different cell lines obtained from ATCC which have varying degrees of sensitivity to topoisomerase I inhibitors such as camptothecin and topotecan were subject to Optophoretic analysis. A group of cells from a parental cell line CCRF-CEM that is sensitive to camptothecin and topotecan were incubated for 6 hours with 10 μM topotecan. Another group of cells from the cell line CEM/C2, which are 970-fold less sensitive to camptothecin and topotecan, were also incubated for 6 hours with 10 μM topotecan. Control cells from both the CCRF-CEM and CEM/C2 cell lines were also tested. The cells were incubated for six hours and prepared for testing in accordance with the procedures described above in the prior experiments. The cells were then loaded onto a cover slip containing agarose that was spin-coated onto the surface thereof. Escape velocity measurements were then taken using a 100 mW laser with a diameter of 28 pixels. […] Optophoretic analysis was thus able to score cross-resistance of camptothecin-resistant cell lines to topotecan, an analog of camptothecin.

U937 cells [9] = system: U937 cells; remark: listed apart in the source
Method: Both groups of cells were incubated with compound in 0.1% DMSO (or simply 0.1% DMSO in the case of the control) for four hours. At the end of the incubation period, the cells were centrifuged down for 3-5 minutes at 5000 rpm in a Model V microcentrifuge (VWR scientific). The supernatant was then aspirated and the pellet resuspended in 1 ml PBS/1% BSA buffer plus 1:10 trypan blue. Escape velocity measurements were then taken of the cells.
The different groups of cells were incubated for various time periods (3, 6, 9, and 24 hours) and escape velocity measurements were made. At the end of the incubation period, the cells were centrifuged down for five minutes at 5000 rpm. The supernatant was then removed and the pellet resuspended in 1 ml PBS/1% BSA buffer plus 1:10 trypan blue. The cells were then loaded onto a cover slip containing agarose that was spin-coated onto the surface thereof.
The cells were incubated for four hours and prepped for testing in accordance with the procedures described above in the prior experiments. The cells were then loaded onto a cover slip containing agarose that was spin-coated onto the surface thereof. Escape velocity measurements were then taken using a 100 mW laser with a diameter of 21.5 pixels.
The groups of cells were incubated (or simply 0.1% DMSO in the case of the control) for six hours. At the end of the incubation period, the cells were centrifuged down for five minutes at 5000 rpm. The supernatant was then removed and the pellet resuspended in 1 ml PBS/1% BSA buffer plus 1:10 trypan blue. The cells were then loaded onto a cover slip containing agarose that was spin-coated onto the surface thereof. Escape velocity measurements were then taken using a 100 mW laser with a diameter of 28 pixels. Escape velocity measurements were then taken of the cells.
The groups of cells were incubated for six hours with compound (or simply DMSO in the case of the control). At the end of the incubation period, the cells were centrifuged down for five minutes at 5000 rpm. […]

CEM/C2 cell line = details: cell lines obtained from ATCC; cited from earlier work

SMILES: CN(C)CCCn1cc(C2=C(c3c[nH]c4ccccc34)C(=O)NC2=O)c2ccccc21 [Bisindolymalemide]
average escape velocity (U937 cells [1]; 50 ng/ml bisindolymaleimide + 10 ng/ml PMA): 15.1 μm/sec
escape velocity, Ave. (U937 cells [1]; 50 ng/ml bisindolymaleimide): 13.9
effect on the optophoretic shift in escape velocity caused by PMA (U937 cells [1]; 200 ng/ml BIMI for 30 minutes followed by 10 ng/ml PMA (FIG. 33)): blocked the optophoretic shift in escape velocity
average escape velocity (U937 cells [1]; 200 ng/ml bisindolymaleimide + 10 ng/ml PMA): 14.5 μm/sec
escape velocity, Ave. (U937 cells [1]; 200 ng/ml bisindolymaleimide): 14.0

SMILES: C[S+](C)[O-] [DMSO, dimethylsulfoxide]
course of mean travel distance (HL-60 cells; 16 to 72 hours (FIG. 149)): mean travel distance progressively decreased as time elapsed
time after treatment at which a noticeable decrease in mean travel distance was detected (HL-60 cells; fast scan): ≤ 16 h
time after treatment at which FACS detected a change in CD11b expression levels [2]: 40 h

SMILES: CC[C@H]1OC(=O)[C@H](C)[C@@H](O[C@H]2C[C@@](C)(OC)[C@@H](O)[C@H](C)O2)[C@H](C)[C@@H](O[C@@H]2O[C@H](C)C[C@H](N(C)C)[C@H]2O)[C@](C)(O)C[C@@H](C)C(=O)[C@H](C)[C@@H](O)[C@]1(C)O [Erythromycin]
time at which a reduction in escape velocity can be seen ([3]; 5 μg/ml Erythromycin (FIG. 81)): 1 h
change of escape velocity over time ([3]; 5 μg/ml Erythromycin, time zero, 30 minutes, 3 hours post-treatment (FIG. 80)): escape velocity of the Erythromycin-sensitive strain decreases
escape velocity after treatment [4]: same escape velocity as the untreated Erythromycin-sensitive strain

SMILES: Cc1ccc(NC(=O)c2ccc(CN3CCN(C)CC3)cc2)cc1Nc1nccc(-c2cccnc2)n1 [Gleevec, imatinib mesylate]
escape velocity as compared to non-treated cells [5]: significantly lower escape velocity
Mean Distance (EM-3 cells): 13.199 μm
response of mean travel distance to varying concentration (EM-3 cells; 0.06 to 4 μM Gleevec, 48 hours): dose-dependent response

SMILES: Cc1oncc1C(=O)Nc1ccc(C(F)(F)F)cc1 [Leflunomide]
effect on the increase in escape velocity caused by TNF (Jurkat cells): mitigate the increase in escape velocity caused by TNF

SMILES: O=C([O-])c1ccccc1O.[Na+] [Sodium Salicylate, sodium salicylate]
shift in escape velocities (U937 cells [6]; 5 mM and 20 mM salicylic acid, 5 and 24 hours (FIG. 37)): slight but statistically significant shift in escape velocities
escape velocity, Ave. (U937 cells [6]; 5 mM sodium salicylate, 5 hours): 14.1
escape velocity, Ave. (U937 cells [6]; 5 mM sodium salicylate, 24 hours): 15.2
escape velocity, Ave. (U937 cells [6]; 5 mM sodium salicylate, 47 hours): 13.7
escape velocity, Ave. (U937 cells [6]; 20 mM sodium salicylate, 5 hours): 13.3
escape velocity, Ave. (U937 cells [6]; 20 mM sodium salicylate, 24 hours): 16.0
cell viability (trypan blue) (U937 cells [6]; 20 mM, 47 hours): all cells were dead

SMILES: CN[C@@H]1C[C@H]2O[C@@](C)([C@@H]1OC)n1c3ccccc3c3c4c(c5c6ccccc6n2c5c31)C(=O)NC4 [Staurosporine]
Mean Distance (EM-3 cells): 9.250 μm

mean travel distance (Chang liver cells [8]): 20.97 μm
SMILES: CC(=O)N1CCN(c2ccc(OCC3COC(Cn4ccnc4)(c4ccc(Cl)cc4Cl)O3)cc2)CC1 (stereo not drawn) [ketoconazole]
escape velocity versus control (Chang liver cells [7]): marked decrease in escape velocity

SMILES: CC[C@@]1(O)C(=O)OCc2c1cc1n(c2=O)Cc2cc3c(CN(C)C)c(O)ccc3nc2-1 [topotecan]
decrease in escape velocity (CCRF-CEM cells): larger decrease in escape velocity as compared to the CEM/C2 cells
shift in escape velocity (U937 cells [9]; 4 μg/ml, four hours (FIG. 54)): larger shift in escape velocity as compared to the camptothecin-treated cells
cell death (U937 cells [9]; human, 24 h, 10 μM): virtually all of the treated U937 cells were dead
potency by escape velocity concentration curves (U937 cells [9]; six hours, FIG. 65 versus FIG. 70): higher potency of topotecan as compared to camptothecin
fold less sensitive than parental CCRF-CEM (CEM/C2 cell line): 970 fold
